Reference: the supplement of paper PMC11208160

Experiment: recombinant UMI read abundance after kanamycin selection (control-corrected) (log10(CPM+1)); higher = more efficient recombination; extreme values may be limits of the assay; sequences stand for … in AGTGCAGAGAAAATCGGCCAGTTTTCTCTGCCTGCAGTCCGCATGCCGTGGGACCCCTTGGGTTCTAACCTGTTGCCTAGATTTATGCAGCGGACTGCCTTTCTCCCAAAGTGATAAACCGG…AGGTTGGTTTCACT; site = the 11-nt donor
In short: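 In Escherichia coli, a pool of donor and donor-binding-loop pairs, each with a 12-nt UMI, was tested for the IS621 bridge recombinase. Plating was on IPTG (0.07 mM) plus kanamycin, or without selection, in two replicates. Recombinant UMIs were amplified by PCR across the donor–target junction and sequenced, and counts were reported as log10(CPM+1) after averaging and control-derived scaling.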
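Note: IS621 bridge recombinase in Escherichia coli cells against a fixed T5 target plasmid.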

Sequence	recombinant UMI read abundance (log10)
CTAGTATCATGGACCGGTTTTCCCGGTAATCCGTATTTGAC (site ATAGCATCTGT)	0
CTAGTATCATGGACCGGTTTTCCCGGTAATCCGTATTTGAC (site ATAGTAGCTGT)	0.00849
CTAGTATCATGGACCGGTTTTCCCGGTAATCCGTATTTGAC (site ATAGTATCTGG)	0.298
CTAGTATCATGGACCGGTTTTCCCGGTAATCCGTATTTGAC (site ATAGTATCTGT)	0.432
CTAGTATCATGGACCGGTTTTCCCGGTAATCCGTATTTGAC (site ATAGTATCTTT)	0.00657
CTAGTATCATGGACCGGTTTTCCCGGTAATCCGTATTTGAC (site ATAGTTTCTGT)	0
CTAGTATCATGGACCGGTTTTCCCGGTAATCCGTATTTGAC (site ATGGTATCTGT)	0.837
CTAGTATCATGGACCGGTTTTCCCGGTAATCCGTATTTGAC (site CAAATATCTGT)	0
CTAGTATCATGGACCGGTTTTCCCGGTAATCCGTATTTGAC (site CAAGAATCTGT)	0
CTAGTATCATGGACCGGTTTTCCCGGTAATCCGTATTTGAC (site CAAGTAACTGT)	0.0563
CTAGTATCATGGACCGGTTTTCCCGGTAATCCGTATTTGAC (site CAAGTATCTCT)	0.473
CTAGTATCATGGACCGGTTTTCCCGGTAATCCGTATTTGAC (site CAAGTATCTGA)	0
CTAGTATCATGGACCGGTTTTCCCGGTAATCCGTATTTGAC (site CAAGTATCTGT)	2.47
CTAGTATCATGGACCGGTTTTCCCGGTAATCCGTATTTGAC (site CAAGTCTCTGT)	0
CTAGTATCATGGACCGGTTTTCCCGGTAATCCGTATTTGAC (site CACGTATCTGT)	0.0166
CTAGTATCATGGACCGGTTTTCCCGGTAATCCGTATTTGAC (site CCACTATCTGT)	0

Sequence	recombinant UMI read abundance (log10)
CTAGTATCATGGACCGGTTTTCCCGGTAATCCGTATTTGAC (site CCAGCATCTGT)	0.00896
CTAGTATCATGGACCGGTTTTCCCGGTAATCCGTATTTGAC (site CCAGTAGCTGT)	0
CTAGTATCATGGACCGGTTTTCCCGGTAATCCGTATTTGAC (site CCAGTATCTGG)	0
CTAGTATCATGGACCGGTTTTCCCGGTAATCCGTATTTGAC (site CCAGTATCTGT)	2.69
CTAGTATCATGGACCGGTTTTCCCGGTAATCCGTATTTGAC (site CCAGTATCTTT)	0.412
CTAGTATCATGGACCGGTTTTCCCGGTAATCCGTATTTGAC (site CCAGTTTCTGT)	0
CTAGTATCATGGACCGGTTTTCCCGGTAATCCGTATTTGAC (site CCGGTATCTGT)	0.281
CTAGTATCATGGACCGGTTTTCCCGGTAATCCGTATTTGAC (site CGAGGATCTGT)	0
CTAGTATCATGGACCGGTTTTCCCGGTAATCCGTATTTGAC (site CGAGTACCTGT)	0
CTAGTATCATGGACCGGTTTTCCCGGTAATCCGTATTTGAC (site CGAGTATCTAT)	0
CTAGTATCATGGACCGGTTTTCCCGGTAATCCGTATTTGAC (site CGAGTATCTGC)	0
CTAGTATCATGGACCGGTTTTCCCGGTAATCCGTATTTGAC (site CGAGTATCTGT)	0.849
CTAGTATCATGGACCGGTTTTCCCGGTAATCCGTATTTGAC (site CGAGTGTCTGT)	0
CTAGTATCATGGACCGGTTTTCCCGGTAATCCGTATTTGAC (site CGATTATCTGT)	0
CTAGTATCATGGACCGGTTTTCCCGGTAATCCGTATTTGAC (site CGTGTATCTGT)	0
CTAGTATCATGGACCGGTTTTCCCGGTAATCCGTATTTGAC (site CTAAAATCTGT)	0
